Experiments:
Interstitial collagenase = molecular target: T1, Interstitial collagenase (Homo sapiens, UniProt P03956); assay: Inhibition of matrix metalloprotease-1 (MMP-1)
T1 sequence (P03956 whole entry): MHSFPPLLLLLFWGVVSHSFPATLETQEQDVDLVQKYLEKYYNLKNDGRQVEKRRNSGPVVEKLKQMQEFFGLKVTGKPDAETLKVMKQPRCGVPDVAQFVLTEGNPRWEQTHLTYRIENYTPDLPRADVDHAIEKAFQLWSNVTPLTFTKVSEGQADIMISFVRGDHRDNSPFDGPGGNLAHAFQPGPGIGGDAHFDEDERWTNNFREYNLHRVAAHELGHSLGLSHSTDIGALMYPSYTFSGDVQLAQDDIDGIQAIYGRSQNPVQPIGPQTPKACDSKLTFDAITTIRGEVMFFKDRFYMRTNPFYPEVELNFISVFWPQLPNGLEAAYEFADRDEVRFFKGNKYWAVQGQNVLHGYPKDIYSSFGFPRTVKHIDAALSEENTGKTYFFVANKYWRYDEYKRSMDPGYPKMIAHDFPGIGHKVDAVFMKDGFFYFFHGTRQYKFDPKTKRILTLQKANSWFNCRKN

Collagenase 3 = Collagenase 3 (Homo sapiens, UniProt P45452); assay: Inhibition of Matrix metalloprotease-13 (MMP-13)
Stromelysin-1 = Stromelysin-1 (Homo sapiens, UniProt P08254); assay: Inhibition of matrix metalloprotease-3 (MMP-3)
Stromelysin-1, sequence (P08254 whole entry): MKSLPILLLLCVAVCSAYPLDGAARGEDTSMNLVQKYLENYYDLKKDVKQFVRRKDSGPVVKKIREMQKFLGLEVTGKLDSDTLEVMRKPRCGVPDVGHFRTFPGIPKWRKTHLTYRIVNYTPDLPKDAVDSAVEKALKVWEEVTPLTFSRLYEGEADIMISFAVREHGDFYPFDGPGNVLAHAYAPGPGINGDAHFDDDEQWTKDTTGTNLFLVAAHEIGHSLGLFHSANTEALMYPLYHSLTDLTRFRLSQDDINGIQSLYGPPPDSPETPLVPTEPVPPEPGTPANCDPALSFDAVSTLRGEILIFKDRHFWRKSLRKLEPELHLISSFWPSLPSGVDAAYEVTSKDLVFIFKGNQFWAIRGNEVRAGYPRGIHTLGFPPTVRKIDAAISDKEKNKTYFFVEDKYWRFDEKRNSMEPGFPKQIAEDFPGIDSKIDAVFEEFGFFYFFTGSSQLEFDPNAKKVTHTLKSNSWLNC

Neutrophil collagenase = Neutrophil collagenase (Homo sapiens, UniProt P22894); assay: Inhibition of Matrix metalloprotease-8
Neutrophil collagenase, sequence (P22894 whole entry): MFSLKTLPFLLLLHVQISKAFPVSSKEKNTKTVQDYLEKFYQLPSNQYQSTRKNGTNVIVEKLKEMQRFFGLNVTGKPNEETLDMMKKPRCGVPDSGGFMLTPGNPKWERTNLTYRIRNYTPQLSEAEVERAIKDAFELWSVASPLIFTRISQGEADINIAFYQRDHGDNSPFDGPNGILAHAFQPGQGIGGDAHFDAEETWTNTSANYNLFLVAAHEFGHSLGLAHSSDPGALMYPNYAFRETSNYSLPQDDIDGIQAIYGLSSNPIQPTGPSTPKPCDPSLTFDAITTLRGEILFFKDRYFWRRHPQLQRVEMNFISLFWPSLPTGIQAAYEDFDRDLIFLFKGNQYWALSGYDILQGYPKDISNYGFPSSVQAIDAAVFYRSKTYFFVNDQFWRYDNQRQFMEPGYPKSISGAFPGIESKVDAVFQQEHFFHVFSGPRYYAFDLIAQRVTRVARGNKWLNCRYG

COc1ccc(S(=O)(=O)CCC(C)S)cc1 (stereo not drawn)
IC50 (Interstitial collagenase): 8000 nM | IC50 (Collagenase 3): 32 nM

COC(=O)C(S)CCS(=O)(=O)c1ccc(OC)cc1 (stereo not drawn)
IC50 (Interstitial collagenase): 4000 nM

CCCC(CCS)S(=O)(=O)c1ccc(OC)cc1 (stereo not drawn)
IC50 (Collagenase 3): 6 nM

COc1ccc(S(=O)(=O)CC(C)(C)CS)cc1
IC50 (Interstitial collagenase): > 10000 nM

CCCCC(S)CCS(=O)(=O)c1ccc(OC)cc1 (stereo not drawn)
IC50 (Interstitial collagenase): > 10000 nM

COc1ccc(S(=O)(=O)C[C@@H](C)CS)cc1
IC50 (Interstitial collagenase): 5000 nM | IC50 (Collagenase 3): 250 nM

COc1ccc(S(=O)(=O)C(CCS)c2ccccc2)cc1 (stereo not drawn)
IC50 (Interstitial collagenase): > 10000 nM

O=S(=O)(CCCS)c1ccc(Oc2ccccc2)cc1
IC50 (Stromelysin-1): 500 nM | IC50 (Interstitial collagenase): 1500 nM | IC50 (Collagenase 3): 0.5 nM | IC50 (Neutrophil collagenase): 4 nM

COc1ccc(S(=O)(=O)C[C@H](C)CS)cc1
IC50 (Interstitial collagenase): > 10000 nM

O=S(=O)(CCCS)c1ccc(Sc2ccccc2)cc1
IC50 (Stromelysin-1): 150 nM | IC50 (Interstitial collagenase): > 10000 nM | IC50 (Neutrophil collagenase): 36 nM

COc1ccc(S(=O)(=O)CCCS)cc1
IC50 (Interstitial collagenase): > 10000 nM
